≈ marks a conversion by molar mass, not a printed value. Values belong to the compound of their own block, whether it stands above or below them.
Tests used:
Experiment in all cases: ≥ marks a high value that may be exact or a test limit, other limits are often not marked, values filed in µg/mL are converted to µM
Escherichia coli BL21 = system: Escherichia coli BL21
Pseudomonas syringae = system: Pseudomonas syringae
[1] = system: Streptococcus pyogenes GAS M1T1
[2] = system: Xanthomonas axonopodis pv. phaseoli ATCC 9563
[3] = system: Escherichia coli K12 MG1655
Escherichia coli UTI89 = system: Escherichia coli UTI89
[4] = system: Salmonella enterica subsp. enterica serovar Typhimurium ATCC 14028
[5] = system: Staphylococcus epidermidis
[6] = system: Acinetobacter baumannii ATCC 15308
Citrobacter sp. = system: Citrobacter sp.
Enterobacter cloacae = system: Enterobacter cloacae
[7] = system: Escherichia coli ATCC 25922
Klebsiella pneumoniae = system: Klebsiella pneumoniae
[8] = system: Pseudomonas aeruginosa ATCC 15442
[9] = system: Staphylococcus aureus ATCC 25923
Staphylococcus aureus = system: Staphylococcus aureus
Streptococcus pneumoniae = system: Streptococcus pneumoniae
[10] = system: Acinetobacter baumannii ATCC 19606
[11] = system: Escherichia coli BW25113 ΔsbmA
Escherichia coli BW25113 = system: Escherichia coli BW25113
[12] = system: Klebsiella pneumoniae ATCC 700603
[13] = system: Pseudomonas aeruginosa ATCC 27853
[14] = system: Staphylococcus aureus LAC
[15] = system: Enterococcus faecalis ATCC 19433
Escherichia coli = system: Escherichia coli

MIC [3]: 12.5 µM (≈ 23.5 µg/mL) | MIC (Escherichia coli UTI89): 12.5 µM (≈ 23.5 µg/mL) | MIC [4]: > 50 µM | MIC [5]: ≥ 50 µM
SMILES: CC[C@H](C)[C@H](NC(=O)[C@H](CCCCN)NC(=O)[C@H](CCC(N)=O)NC(=O)[C@H](Cc1c[nH]c2ccccc12)NC(=O)[C@@H](NC(=O)[C@H](CCCCN)NC(=O)[C@@H](N)CCCCN)[C@@H](C)CC)C(=O)N[C@@H](CCCN=C(N)N)C(=O)N[C@@H](CC(N)=O)C(=O)N[C@@H](Cc1ccccc1)C(=O)N[C@@H](Cc1ccccc1)C(=O)N[C@@H](CCC(N)=O)C(=O)N[C@@H](CCCCN)C(=O)N[C@@H](CC(C)C)C(=O)O [KKIWQKIRNFFQKL]

MIC [6]: ≥ 130 µM | MIC (Citrobacter sp.): ≥ 130 µM | MIC (Enterobacter cloacae): ≥ 130 µM | MIC [7]: 130 µM (≈ 250 µg/mL) | MIC (Klebsiella pneumoniae): > 130 µM | MIC [8]: ≥ 65.2 µM | MIC [9]: 65.2 µM (≈ 125 µg/mL) | MIC (Staphylococcus aureus): 130 µM (≈ 250 µg/mL) | MIC (Streptococcus pneumoniae): ≥ 130 µM
SMILES: CC(C)C[C@H](NC(=O)[C@@H](N)CCCN=C(N)N)C(=O)N1CCC[C@H]1C(=O)N[C@@H](Cc1c[nH]c2ccccc12)C(=O)N[C@@H](CCCN=C(N)N)C(=O)N[C@@H](Cc1c[nH]c2ccccc12)C(=O)N1CCC[C@H]1C(=O)N[C@@H](CCCN=C(N)N)C(=O)N[C@@H](CCCN=C(N)N)C(=O)N1CCC[C@H]1C(=O)N[C@@H](Cc1c[nH]c2ccccc12)C(=O)N[C@@H](CCCN=C(N)N)C(=O)N[C@@H](CCCN=C(N)N)C(N)=O [RLPWRWPRRPWRR]

MIC [10]: 8 µM (≈ 22.6 µg/mL) | MIC [7]: 8 µM (≈ 22.6 µg/mL) | MIC [11]: ≥ 64 µM | MIC (Escherichia coli BW25113): 4 µM (≈ 11.3 µg/mL) | MIC [12]: > 64 µM | MIC [13]: > 64 µM | MIC [4]: > 64 µM | MIC [9]: > 64 µM
SMILES: CC[C@H](C)[C@H](NC(=O)[C@@H]1CCCN1C(=O)[C@@H]1CCCN1C(=O)[C@H](CCCN=C(N)N)NC(=O)[C@H](Cc1ccccc1)NC(=O)[C@@H]1CCCN1C(=O)[C@@H]1CCCN1C(=O)[C@H](Cc1ccc(O)cc1)NC(=O)[C@H](Cc1ccccc1)NC(=O)[C@@H]1CCCN1C(=O)[C@@H]1CCCN1C(=O)[C@H](CCCN=C(N)N)NC(=O)[C@@H](NC(=O)[C@@H]1CCCN1C(=O)[C@@H]1CCCN1C(=O)[C@H](CCCN=C(N)N)NC(=O)[C@H](CCCN=C(N)N)NC(=O)[C@@H](NC(=O)[C@@H]1CCCN1C(=O)[C@@H]1CCCN1C(=O)[C@@H](N)CCCN=C(N)N)[C@@H](C)CC)[C@@H](C)CC)C(=O)N[C@@H](CCCN=C(N)N)C(=O)N1CCC[C@H]1C(=O)O [RPPIRRPPIRPPFYPPFRPPIRP]

MIC [7]: > 98.8 µM | MIC [14]: ≥ 98.8 µM
SMILES: NC(N)=NCCC[C@H](NC(=O)[C@H](CCCN=C(N)N)NC(=O)[C@H](CCCN=C(N)N)NC(=O)[C@H](CCCN=C(N)N)NC(=O)[C@H](Cc1ccc(O)cc1)NC(=O)[C@H](Cc1ccc(O)cc1)NC(=O)[C@H](Cc1ccc(O)cc1)NC(=O)[C@@H](N)Cc1ccc(O)cc1)C(=O)O [YYYYRRRR]

MIC [15]: ≥ 154 µM
SMILES: CC[C@@H](C)[C@@H](NC(=O)[C@@H](CCCN=C(N)N)NC(=O)[C@@H](CCCN=C(N)N)NC(=O)[C@@H](Cc1c[nH]c2ccccc12)NC(=O)[C@@H](CCC(N)=O)NC(=O)[C@H](N)C(C)C)C(=O)N[C@H](CCCN=C(N)N)C(=O)N[C@@H](C(=O)N[C@H](Cc1c[nH]c2ccccc12)C(=O)N[C@@H](C(=O)N[C@@H](C(=O)N[C@H](CCCN=C(N)N)C(=O)O)[C@H](C)CC)C(C)C)C(C)C [VQWRRIRVWVIR]

MIC [10]: 8 µM (≈ 19.2 µg/mL) | MIC [11]: 4 µM (≈ 9.61 µg/mL) | MIC (Escherichia coli BW25113): 4 µM (≈ 9.61 µg/mL) | MIC (Escherichia coli): 1.41 µM (≈ 3.4 µg/mL) | MIC [12]: 4 µM (≈ 9.61 µg/mL) | MIC [13]: 32 µM (≈ 76.9 µg/mL) | MIC [9]: 64 µM (≈ 154 µg/mL)
SMILES: CC[C@H](C)[C@H](NC(=O)[C@@H]1CCCN1C(=O)[C@H](CCCN=C(N)N)NC(=O)[C@H](CCCN=C(N)N)NC(=O)[C@H](Cc1c[nH]c2ccccc12)NC(=O)[C@@H](N)CCCN=C(N)N)C(=O)N[C@@H](CCCN=C(N)N)C(=O)N[C@@H](CCCN=C(N)N)C(=O)N[C@@H](CCCN=C(N)N)C(=O)N1CCC[C@H]1C(=O)N[C@H](C(=O)N[C@@H](CCCN=C(N)N)C(=O)N1CCC[C@H]1C(=O)N1CCC[C@H]1C(=O)N[C@@H](Cc1ccccc1)C(=O)N[C@@H](Cc1c[nH]c2ccccc12)C(=O)N[C@@H](CCCN=C(N)N)C(=O)O)[C@@H](C)CC [RWRRPIRRRPIRPPFWR]

More lines, now with the values behind:

SMILES: CC[C@H](C)[C@H](NC(=O)[C@H](CCC(=O)O)NC(=O)[C@H](CC(N)=O)NC(=O)[C@H](CCCCN)NC(=O)[C@H](CC(C)C)NC(=O)[C@H](Cc1ccc(O)cc1)NC(=O)[C@H](CCC(N)=O)NC(=O)[C@H](CCCN=C(N)N)NC(=O)[C@@H](NC(=O)[C@@H](NC(=O)[C@H](CCCCN)NC(=O)[C@H](CCCCN)NC(=O)[C@H](Cc1c[nH]c2ccccc12)NC(=O)[C@H](C)N)[C@@H](C)O)[C@@H](C)CC)C(=O)N[C@@H](CCCCN)C(=O)N[C@@H](CCCCN)C(=O)N[C@@H](CCCCN)C(=O)N[C@@H](Cc1c[nH]c2ccccc12)C(=O)N[C@@H](CCCN=C(N)N)C(=O)N[C@@H](CCCCN)C(=O)N[C@@H](C)C(=O)N[C@H](C(=O)N[C@H](C(=O)N[C@@H](C)C(=O)N[C@@H](Cc1c[nH]c2ccccc12)C(=O)O)[C@@H](C)CC)C(C)C [AWKKTIRQYLKNEIKKKWRKAVIAW]
MIC (Escherichia coli BL21): 2 µM (≈ 6.37 µg/mL) | MIC (Pseudomonas syringae): 8 µM (≈ 25.5 µg/mL) | MIC [1]: 8 µM (≈ 25.5 µg/mL) | MIC [2]: 1 µM (≈ 3.19 µg/mL)

SMILES: CC[C@H](C)[C@H](NC(=O)[C@H](CCSC)NC(=O)[C@H](C)NC(=O)[C@@H]1CCCN1C(=O)[C@@H](NC(=O)[C@H](CCCN=C(N)N)NC(=O)[C@H](CCCCN)NC(=O)[C@@H](NC(=O)[C@H](CC(C)C)NC(=O)CNC(=O)CNC(=O)[C@H](CC(C)C)NC(=O)[C@@H](N)Cc1ccccc1)[C@@H](C)CC)C(C)C)C(=O)N[C@H]1CSSC[C@@H](C(=O)O)NC(=O)[C@H](CCCCN)NC(=O)[C@H](CCCCN)NC(=O)[C@H](CCCN=C(N)N)NC(=O)[C@H](C(C)C)NC(=O)[C@H](C)NC1=O [FLGGLIKRVPAMICAVRKKC]
MIC [6]: ≥ 113 µM | MIC (Citrobacter sp.): ≥ 113 µM | MIC (Enterobacter cloacae): ≥ 113 µM | MIC [7]: > 113 µM | MIC (Klebsiella pneumoniae): > 113 µM | MIC [8]: ≥ 113 µM | MIC [9]: > 113 µM | MIC (Staphylococcus aureus): > 113 µM | MIC (Streptococcus pneumoniae): ≥ 113 µM

SMILES: CC[C@H](C)[C@H](N)C(=O)N[C@H](C(=O)N[C@H](C(=O)N[C@H](C(=O)N[C@@H](CCCN=C(N)N)C(=O)N[C@@H](CCCN=C(N)N)C(=O)N[C@@H](CCCN=C(N)N)C(=O)N[C@@H](CCCN=C(N)N)C(=O)O)[C@@H](C)CC)[C@@H](C)CC)[C@@H](C)CC [IIIIRRRR]
MIC [7]: > 117 µM | MIC [14]: ≥ 117 µM

SMILES: CC[C@H](C)[C@H](NC(=O)[C@H](CCCCN)NC(=O)[C@H](CCC(N)=O)NC(=O)[C@H](Cc1c[nH]c2ccccc12)NC(=O)[C@@H](NC(=O)[C@H](CCCCN)NC(=O)[C@@H](N)CCCCN)[C@@H](C)CC)C(=O)N[C@@H](CCCCN)C(=O)N[C@@H](CC(N)=O)C(=O)N[C@@H](Cc1ccccc1)C(=O)N[C@@H](Cc1ccccc1)C(=O)N[C@@H](CCCN=C(N)N)C(=O)N[C@@H](CCCCN)C(=O)N[C@@H](CC(C)C)C(=O)O [KKIWQKIKNFFRKL]
MIC [3]: ≥ 50 µM | MIC (Escherichia coli UTI89): 25 µM (≈ 46.9 µg/mL) | MIC [4]: > 50 µM | MIC [5]: 12.5 µM (≈ 23.5 µg/mL)

Source: DBAASP
